Measurements as given in ChEMBL document CHEMBL5252515, “Discovery of 6-Amino-2-{[(1S)-1-methylbutyl]oxy}-9-[5-(1-piperidinyl)pentyl]-7,9-dihydro-8H-purin-8-one (GSK2245035), a Highly Potent and Selective Intranasal Toll-Like Receptor 7 Agonist for the Treatment of Asthma” (J Med Chem, 2016).
pEC50: −log10 of the molar value. Calls of active or inactive are those of the source. The calls are words filed in the database; no cut-off is given here.

Tests used:
Mus musculus [1] = assay: Increase in IP-10 level in BALB/c mouse serum at 0.1 mg/kg, administered intranasally after 2 hrs by ELISA; format: functional, organism-based
Toll-like receptor 7 [2] = target: T1, Toll-like receptor 7 (Homo sapiens, UniProt Q9NYK1); assay: Agonist activity at TLR7 in human PBMC assessed as TNF-alpha production after 24 hrs by electrochemiluminescence assay; format: cell-based
T1 sequence (Q9NYK1 whole entry): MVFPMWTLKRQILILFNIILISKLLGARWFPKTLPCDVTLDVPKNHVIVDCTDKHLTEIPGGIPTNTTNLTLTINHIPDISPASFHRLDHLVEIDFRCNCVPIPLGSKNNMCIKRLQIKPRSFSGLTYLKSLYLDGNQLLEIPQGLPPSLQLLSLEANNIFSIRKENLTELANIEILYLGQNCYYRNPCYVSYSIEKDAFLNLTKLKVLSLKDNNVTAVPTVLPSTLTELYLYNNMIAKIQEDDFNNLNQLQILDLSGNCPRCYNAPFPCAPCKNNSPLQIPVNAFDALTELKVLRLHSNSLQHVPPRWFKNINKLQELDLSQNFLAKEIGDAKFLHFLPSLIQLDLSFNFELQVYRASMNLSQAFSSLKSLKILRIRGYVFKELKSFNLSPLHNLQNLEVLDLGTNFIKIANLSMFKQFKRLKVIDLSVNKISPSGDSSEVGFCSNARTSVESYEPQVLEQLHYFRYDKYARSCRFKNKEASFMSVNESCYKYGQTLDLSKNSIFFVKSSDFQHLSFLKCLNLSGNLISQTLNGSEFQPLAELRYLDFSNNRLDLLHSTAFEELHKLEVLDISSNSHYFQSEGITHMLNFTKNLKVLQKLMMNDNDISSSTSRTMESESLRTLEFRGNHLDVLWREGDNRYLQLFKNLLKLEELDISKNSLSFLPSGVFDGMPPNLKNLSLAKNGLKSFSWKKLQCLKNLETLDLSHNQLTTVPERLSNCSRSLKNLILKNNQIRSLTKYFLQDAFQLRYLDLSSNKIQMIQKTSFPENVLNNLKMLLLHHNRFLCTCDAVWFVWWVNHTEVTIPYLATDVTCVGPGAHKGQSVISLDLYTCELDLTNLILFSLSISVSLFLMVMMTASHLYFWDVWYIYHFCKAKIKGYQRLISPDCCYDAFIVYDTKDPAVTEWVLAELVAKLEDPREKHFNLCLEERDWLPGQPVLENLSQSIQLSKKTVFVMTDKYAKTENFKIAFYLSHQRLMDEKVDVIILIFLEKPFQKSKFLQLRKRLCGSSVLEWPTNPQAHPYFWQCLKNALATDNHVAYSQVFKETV

Toll-like receptor 7 [3] = target: T1, Toll-like receptor 7; assay: Agonist activity at TLR7 in human whole blood assessed as induction of IL-12p70 production after 20 hrs by electrochemiluminescence assay; format: tissue-based
Toll-like receptor 7 [4] = target: T1, Toll-like receptor 7; assay: Agonist activity at TLR7 (unknown origin) expressed in human U2OS cells assessed as induction of NF-kappaB driven TNFalpha production by luciferase reporter assay; format: cell-based
Mus musculus [5] = assay: Increase in IFN-alpha level in BALB/c mouse serum at 0.3 mg/kg, administered intranasally after 2 hrs by ELISA; format: functional, organism-based
[6] = target: T2, Toll-like receptor 7 (Macaca fascicularis) (UniProt B3Y652); assay: In vivo target occupancy at TLR7 in cynomolgus monkey assessed as fold increase in CCL8 mRNA expression in nasal scrape at 3 ng/kg administered intranasally incubated for 24 hrs by TaqMan analysis (reference value: 1); format: functional
T2 sequence (whole entry): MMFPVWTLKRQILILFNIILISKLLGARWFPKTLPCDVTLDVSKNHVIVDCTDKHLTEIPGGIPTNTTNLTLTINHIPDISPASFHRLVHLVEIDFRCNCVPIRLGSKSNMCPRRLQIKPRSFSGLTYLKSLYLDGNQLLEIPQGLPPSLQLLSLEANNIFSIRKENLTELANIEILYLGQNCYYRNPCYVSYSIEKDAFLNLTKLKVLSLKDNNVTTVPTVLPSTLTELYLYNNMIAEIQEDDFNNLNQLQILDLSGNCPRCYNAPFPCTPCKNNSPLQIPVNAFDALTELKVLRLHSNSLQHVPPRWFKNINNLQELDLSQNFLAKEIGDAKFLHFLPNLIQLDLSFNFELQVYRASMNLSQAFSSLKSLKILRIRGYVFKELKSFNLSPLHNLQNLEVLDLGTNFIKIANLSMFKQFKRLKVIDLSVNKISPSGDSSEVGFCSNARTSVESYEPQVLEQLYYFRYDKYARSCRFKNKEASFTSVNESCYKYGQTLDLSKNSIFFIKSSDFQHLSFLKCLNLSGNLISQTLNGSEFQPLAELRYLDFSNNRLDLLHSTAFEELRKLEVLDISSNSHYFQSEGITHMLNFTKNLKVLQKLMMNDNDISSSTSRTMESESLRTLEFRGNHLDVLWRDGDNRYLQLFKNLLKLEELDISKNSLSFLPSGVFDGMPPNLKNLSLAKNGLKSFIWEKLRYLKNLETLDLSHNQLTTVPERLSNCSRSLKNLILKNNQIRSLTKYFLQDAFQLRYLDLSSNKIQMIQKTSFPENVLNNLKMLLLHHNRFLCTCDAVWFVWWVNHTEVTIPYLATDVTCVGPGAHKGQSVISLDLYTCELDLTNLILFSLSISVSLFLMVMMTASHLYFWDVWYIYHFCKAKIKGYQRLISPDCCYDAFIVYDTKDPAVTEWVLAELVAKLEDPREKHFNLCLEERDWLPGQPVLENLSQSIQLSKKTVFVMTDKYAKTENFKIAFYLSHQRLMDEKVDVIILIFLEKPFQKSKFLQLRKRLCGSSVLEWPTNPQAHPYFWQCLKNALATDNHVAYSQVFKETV

[7] = target: T2, Toll-like receptor 7 (Macaca fascicularis); assay: In vivo target occupancy at TLR7 in cynomolgus monkey assessed as fold increase in CXCL10 mRNA expression in nasal scrape at 3 ng/kg administered intranasally incubated for 24 hrs by TaqMan analysis (reference value: 1.6); format: functional
[8] = target: T2, Toll-like receptor 7 (Macaca fascicularis); assay: In vivo target occupancy at TLR7 in cynomolgus monkey assessed as fold increase in OAS1 mRNA expression in nasal scrape at 3 ng/kg administered intranasally incubated for 24 hrs by TaqMan analysis (reference value: 1.2); format: functional
[9] = target: T2, Toll-like receptor 7 (Macaca fascicularis); assay: In vivo target occupancy at TLR7 in cynomolgus monkey assessed as fold increase in OAS3 mRNA expression in nasal scrape at 3 ng/kg administered intranasally incubated for 24 hrs by TaqMan analysis (reference value: 0.9); format: functional
[10] = target: T2, Toll-like receptor 7 (Macaca fascicularis); assay: In vivo target occupancy at TLR7 in cynomolgus monkey assessed as fold increase in OAS2 mRNA expression in nasal scrape at 30 ng/kg administered intranasally incubated for 24 hrs by TaqMan analysis (reference value: 1); format: functional
[11] = Toxicity in female rat assessed as NOAEL after 8 weeks; conditions: in vivo
[12] = Toxicity in mouse assessed as dermal irritancy at 1000 ug/ml administered intranasally after 4 hrs; conditions: in vivo, inhaled_or_intranasal, dose 1000 µg/ml
PBMC = assay: Immunomodulatory activity in human PBMC assessed as IL-10 production in presence of allergen timothy grass; format: functional, cell-based

Which Activity (Mus musculus [1]) does the source give for `CCC[C@H](C)Oc1nc(N)c2[nH]c(=O)n(CCCCCN3CCCCC3)c2n1` [GSK-2245035] here?
Its Activity is “Active”.

What about the pEC50 (Toll-like receptor 7 [2]) of the same compound?
Its pEC50 is 6.50.

What about the pEC50 (Toll-like receptor 7 [3]) of the same compound?
The pEC50 was 7.20.

And the pEC50 (Toll-like receptor 7 [4])?
Its pEC50 is 5.90.

And the Activity (Mus musculus [5])?
Its Activity is “Active”.

What about the fold change (FC) [6] of the same compound?
Its fold change (FC) is 3970.

And the fold change (FC) [7]?
Its fold change (FC) is 230.

What about the fold change (FC) [8] of the same compound?
The fold change (FC) was 38.9.

What about the fold change (FC) [9] of the same compound?
Its fold change (FC) is 86.3.

And the fold change (FC) [10]?
The fold change (FC) was 180.

What about the NOAEL at 1344 h [11] of the same compound?
Its NOAEL at 1344 h is 0.698 mg/kg.

And the Activity [12]?
The Activity was “Non-Toxic”.

What about the Activity (PBMC) of the same compound?
Its Activity is “Active”.
